Data published in ChEMBL document CHEMBL1201862, “PubChem BioAssay data set” (2004).
Activity calls are given as the source filed them.

How the values were obtained:
Protein skinhead-1 = target: T1, Protein skinhead-1 (Caenorhabditis elegans, UniProt P34707); format: functional
T1 sequence (P34707 whole entry): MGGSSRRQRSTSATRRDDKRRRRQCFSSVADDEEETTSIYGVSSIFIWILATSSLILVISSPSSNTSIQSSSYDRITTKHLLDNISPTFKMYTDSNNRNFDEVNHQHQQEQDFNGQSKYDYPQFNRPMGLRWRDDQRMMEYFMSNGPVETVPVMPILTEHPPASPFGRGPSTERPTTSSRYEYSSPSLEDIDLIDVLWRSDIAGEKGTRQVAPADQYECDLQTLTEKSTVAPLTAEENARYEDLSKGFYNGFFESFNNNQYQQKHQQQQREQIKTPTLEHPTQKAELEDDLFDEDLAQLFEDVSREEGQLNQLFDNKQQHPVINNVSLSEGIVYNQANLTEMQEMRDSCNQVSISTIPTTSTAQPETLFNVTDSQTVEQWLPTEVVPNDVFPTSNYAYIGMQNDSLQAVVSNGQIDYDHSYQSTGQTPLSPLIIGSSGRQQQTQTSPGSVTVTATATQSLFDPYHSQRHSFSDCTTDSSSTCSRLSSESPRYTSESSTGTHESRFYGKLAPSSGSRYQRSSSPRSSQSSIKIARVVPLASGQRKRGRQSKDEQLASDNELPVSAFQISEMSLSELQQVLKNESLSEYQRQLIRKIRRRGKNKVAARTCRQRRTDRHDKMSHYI

[1] = target: T2, Delta-type opioid receptor (Homo sapiens, UniProt P41143); experiment: HTS Image-Based Screen for Agonists of the DOR Receptor. [Related pubchem assays (depositor defined):AID1777, AID1786, AID2133]; format: functional
T2 sequence (P41143 whole entry): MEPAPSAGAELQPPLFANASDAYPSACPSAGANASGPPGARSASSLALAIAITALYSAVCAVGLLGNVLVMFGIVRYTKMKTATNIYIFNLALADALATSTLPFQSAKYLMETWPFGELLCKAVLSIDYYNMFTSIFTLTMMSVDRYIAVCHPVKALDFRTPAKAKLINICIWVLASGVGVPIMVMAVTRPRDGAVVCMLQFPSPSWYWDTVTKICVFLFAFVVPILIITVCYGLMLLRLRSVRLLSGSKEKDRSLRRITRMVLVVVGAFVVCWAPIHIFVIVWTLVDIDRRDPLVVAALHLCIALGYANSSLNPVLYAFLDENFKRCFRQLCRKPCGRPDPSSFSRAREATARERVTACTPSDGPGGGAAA

[2] = target: T2, Delta-type opioid receptor; experiment: HTS Image-Based Screen for Antagonists of the DOR Receptor. [Related pubchem assays (depositor defined):AID1777, AID1785, AID1786, AID2133]; format: functional
[3] = target: T3, Kappa-type opioid receptor (Homo sapiens, UniProt P41145); format: functional
T3 sequence (P41145 whole entry): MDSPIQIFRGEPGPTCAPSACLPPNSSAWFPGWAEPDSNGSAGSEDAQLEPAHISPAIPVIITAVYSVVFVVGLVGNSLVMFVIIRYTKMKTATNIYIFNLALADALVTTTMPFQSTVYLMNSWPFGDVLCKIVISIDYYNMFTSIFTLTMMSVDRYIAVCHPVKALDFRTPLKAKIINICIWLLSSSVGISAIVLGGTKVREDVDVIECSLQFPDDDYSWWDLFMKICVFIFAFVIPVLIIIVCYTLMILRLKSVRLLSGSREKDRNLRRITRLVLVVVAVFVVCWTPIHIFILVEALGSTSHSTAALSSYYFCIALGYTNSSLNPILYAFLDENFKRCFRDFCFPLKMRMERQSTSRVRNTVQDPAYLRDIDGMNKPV

Mu-type opioid receptor = Mu-type opioid receptor (Homo sapiens, UniProt P35372); experiment: HTS Image-Based Screen for Agonists of the MOR Receptor. [Related pubchem assays (depositor defined):AID1777, AID1785, AID1786, AID2133]; format: functional;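 further: imaging of beta-arrestin GFP recruitment into spots after receptor activation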
Chain of Mu-type opioid receptor (P35372 whole entry): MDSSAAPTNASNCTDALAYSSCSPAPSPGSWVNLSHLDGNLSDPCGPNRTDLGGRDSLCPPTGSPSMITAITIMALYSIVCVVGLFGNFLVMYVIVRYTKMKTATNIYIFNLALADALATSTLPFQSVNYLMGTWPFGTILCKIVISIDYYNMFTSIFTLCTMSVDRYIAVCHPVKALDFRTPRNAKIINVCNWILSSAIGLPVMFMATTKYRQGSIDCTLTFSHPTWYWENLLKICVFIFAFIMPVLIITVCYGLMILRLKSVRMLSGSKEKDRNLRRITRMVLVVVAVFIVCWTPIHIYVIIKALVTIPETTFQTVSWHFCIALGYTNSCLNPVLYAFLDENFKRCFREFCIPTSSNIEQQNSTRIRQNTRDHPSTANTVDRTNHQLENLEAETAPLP

[4] = target: T3, Kappa-type opioid receptor; format: functional; remark: listed apart in the source
[5] = target: T4, Short transient receptor potential channel 4 (Mus musculus, UniProt Q9QUQ5); experiment: mouse TRPC4 channel inhibitors, dose response, cell-based, HEK293 TRPC4/mu-opioid, Fluo-4 calcium (AID 434942); format: functional;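 further: potency of inhibitors blocking the TRPC4 calcium response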
T4 sequence (Q9QUQ5 whole entry): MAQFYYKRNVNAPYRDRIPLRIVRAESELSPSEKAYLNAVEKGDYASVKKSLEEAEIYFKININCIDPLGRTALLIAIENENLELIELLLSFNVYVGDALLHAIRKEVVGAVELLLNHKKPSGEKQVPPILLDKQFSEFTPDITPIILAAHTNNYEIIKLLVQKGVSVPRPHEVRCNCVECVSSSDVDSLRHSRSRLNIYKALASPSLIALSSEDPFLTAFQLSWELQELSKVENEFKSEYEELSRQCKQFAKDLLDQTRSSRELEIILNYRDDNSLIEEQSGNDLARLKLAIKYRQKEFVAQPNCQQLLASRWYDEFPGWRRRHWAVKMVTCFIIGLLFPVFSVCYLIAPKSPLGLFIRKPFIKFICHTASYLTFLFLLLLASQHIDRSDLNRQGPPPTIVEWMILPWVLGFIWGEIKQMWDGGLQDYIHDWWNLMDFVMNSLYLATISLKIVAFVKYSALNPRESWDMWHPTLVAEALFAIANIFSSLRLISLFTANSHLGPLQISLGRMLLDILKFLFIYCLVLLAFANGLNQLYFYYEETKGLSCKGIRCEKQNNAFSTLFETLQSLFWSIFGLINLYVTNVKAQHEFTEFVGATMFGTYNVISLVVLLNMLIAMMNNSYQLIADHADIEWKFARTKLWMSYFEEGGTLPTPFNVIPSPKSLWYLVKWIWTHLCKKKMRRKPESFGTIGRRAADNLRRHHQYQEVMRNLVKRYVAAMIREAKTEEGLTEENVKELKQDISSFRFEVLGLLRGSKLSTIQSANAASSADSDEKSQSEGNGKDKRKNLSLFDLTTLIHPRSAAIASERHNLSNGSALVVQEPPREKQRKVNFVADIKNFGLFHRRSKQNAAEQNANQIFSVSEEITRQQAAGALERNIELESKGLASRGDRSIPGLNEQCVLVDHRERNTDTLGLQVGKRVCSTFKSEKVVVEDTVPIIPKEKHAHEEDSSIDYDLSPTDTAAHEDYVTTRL

Beta-galactosidase = Beta-galactosidase (Escherichia coli, UniProt Q8VNN2); format: functional
Chain of Beta-galactosidase (Q8VNN2 whole entry): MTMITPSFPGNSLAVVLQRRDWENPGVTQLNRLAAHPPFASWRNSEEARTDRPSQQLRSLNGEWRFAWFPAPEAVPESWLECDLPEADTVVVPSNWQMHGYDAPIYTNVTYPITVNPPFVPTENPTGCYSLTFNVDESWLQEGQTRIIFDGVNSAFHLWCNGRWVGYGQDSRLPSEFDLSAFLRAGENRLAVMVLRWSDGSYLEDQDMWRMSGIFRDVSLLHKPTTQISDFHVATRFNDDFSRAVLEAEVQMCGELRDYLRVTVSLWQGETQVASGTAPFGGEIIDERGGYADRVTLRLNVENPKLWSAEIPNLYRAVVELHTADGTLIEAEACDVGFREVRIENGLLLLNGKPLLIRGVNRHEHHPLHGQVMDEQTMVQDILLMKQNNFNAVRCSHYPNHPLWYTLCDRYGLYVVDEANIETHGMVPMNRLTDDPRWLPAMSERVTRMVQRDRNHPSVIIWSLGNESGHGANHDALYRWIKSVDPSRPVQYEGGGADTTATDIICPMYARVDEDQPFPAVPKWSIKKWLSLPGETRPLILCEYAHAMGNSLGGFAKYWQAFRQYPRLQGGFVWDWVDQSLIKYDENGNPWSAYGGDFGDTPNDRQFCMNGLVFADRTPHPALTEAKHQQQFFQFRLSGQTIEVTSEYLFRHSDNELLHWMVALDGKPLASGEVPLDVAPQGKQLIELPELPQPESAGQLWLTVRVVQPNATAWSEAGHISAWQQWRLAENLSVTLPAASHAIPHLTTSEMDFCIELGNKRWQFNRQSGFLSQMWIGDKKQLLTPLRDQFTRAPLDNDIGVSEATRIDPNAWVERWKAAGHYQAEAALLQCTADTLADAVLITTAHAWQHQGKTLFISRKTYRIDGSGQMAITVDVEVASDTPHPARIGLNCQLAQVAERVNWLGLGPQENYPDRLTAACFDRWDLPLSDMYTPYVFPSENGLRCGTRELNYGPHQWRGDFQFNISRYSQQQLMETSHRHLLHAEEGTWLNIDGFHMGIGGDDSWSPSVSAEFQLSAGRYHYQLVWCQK

[6] = C. albicans growth with fluconazole, confirmation, fluorescence, retest (AID 2467); format: functional, cell-based
[7] = target: T5, Tyrosine-protein phosphatase non-receptor type 22 (Homo sapiens, UniProt Q9Y2R2); format: functional
T5 sequence (Q9Y2R2 whole entry): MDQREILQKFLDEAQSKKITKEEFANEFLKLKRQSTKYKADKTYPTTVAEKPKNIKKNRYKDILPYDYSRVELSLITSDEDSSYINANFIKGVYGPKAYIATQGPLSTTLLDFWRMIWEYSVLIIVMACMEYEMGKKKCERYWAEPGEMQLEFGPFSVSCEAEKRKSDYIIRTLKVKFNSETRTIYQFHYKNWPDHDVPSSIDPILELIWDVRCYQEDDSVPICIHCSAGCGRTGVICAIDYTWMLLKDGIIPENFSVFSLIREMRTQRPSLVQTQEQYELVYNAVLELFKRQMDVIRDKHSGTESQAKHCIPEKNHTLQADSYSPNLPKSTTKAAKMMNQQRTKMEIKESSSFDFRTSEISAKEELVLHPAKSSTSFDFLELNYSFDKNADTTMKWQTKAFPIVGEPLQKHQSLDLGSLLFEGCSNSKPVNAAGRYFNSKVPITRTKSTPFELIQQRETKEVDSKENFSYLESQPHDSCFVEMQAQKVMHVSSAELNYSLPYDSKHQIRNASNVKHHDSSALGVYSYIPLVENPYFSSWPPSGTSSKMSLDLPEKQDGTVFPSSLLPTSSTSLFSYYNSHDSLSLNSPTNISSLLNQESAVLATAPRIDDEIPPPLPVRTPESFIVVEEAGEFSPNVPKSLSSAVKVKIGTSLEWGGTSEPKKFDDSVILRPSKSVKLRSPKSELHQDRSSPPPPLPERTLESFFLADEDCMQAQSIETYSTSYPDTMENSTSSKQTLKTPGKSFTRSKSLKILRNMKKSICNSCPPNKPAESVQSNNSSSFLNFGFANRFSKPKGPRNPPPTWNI

[8] = system: Streptococcus sp. 'group A'; experiment: growth inhibition of control SK(-) GAS strain, dose response, counter-screen for streptokinase expression inhibitor project, luminescence, kanamycin, BacTiterGlo, confirmation (AID 1900); format: functional, organism-based
Streptokinase A = target: T6, Streptokinase A (Streptococcus pyogenes serotype M1, UniProt P10520); experiment: S. pyogenes streptokinase expression inhibitors, potency, dose response, plasminogen activation absorbance, OD405 (AID 1914); format: functional, Streptococcus pyogenes M1 GAS;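 further: secreted streptokinase activity via plasminogen activation per viability signal from cell pellet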
T6 sequence (P10520 whole entry): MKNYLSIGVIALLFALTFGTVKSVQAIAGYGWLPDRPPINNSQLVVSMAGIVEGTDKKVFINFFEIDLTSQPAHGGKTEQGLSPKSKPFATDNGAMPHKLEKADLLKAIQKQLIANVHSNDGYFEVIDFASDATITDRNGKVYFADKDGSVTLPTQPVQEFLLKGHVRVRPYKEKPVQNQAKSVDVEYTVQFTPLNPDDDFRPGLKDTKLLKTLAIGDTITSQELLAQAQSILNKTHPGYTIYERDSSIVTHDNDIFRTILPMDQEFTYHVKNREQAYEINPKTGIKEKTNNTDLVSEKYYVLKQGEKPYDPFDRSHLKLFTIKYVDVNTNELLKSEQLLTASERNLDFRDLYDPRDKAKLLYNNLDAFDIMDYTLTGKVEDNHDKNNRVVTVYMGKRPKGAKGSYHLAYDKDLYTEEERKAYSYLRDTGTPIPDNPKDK

H4 = experiment: Luminescence Cell-Based Dose Response HTS to Identify Activators of 5'UTR Stem-Loop Driven Prion Protein mRNA Translation in H4 Neuroglioblastoma Cells. [Related pubchem assays: 1829 (Project Summary), 1814 (Primary HTS)]; format: functional; details: Homo sapiens
[9] = target: T5, Tyrosine-protein phosphatase non-receptor type 22; format: functional; remark: listed apart in the source
[10] = Luminescence Cell-Based Dose Confirmation HTS to Identify Activators of 5'UTR Stem-Loop Driven Alpha-Synuclein mRNA Translation in H4 Neuroglioblastoma Cells. [Related pubchem assays: 1829 (Project Summary), 1814 (Primary HTS)]; format: functional
[11] = Luminescence Cell-Based Dose Response HTS to Identify Activators of Luciferase Translation or Activity in H4 […] Cells. [Related pubchem assays: 1829 (Project Summary), 1814 (Primary HTS)]; format: functional
[12] = target: T7, Dual specificity protein phosphatase 6 (Rattus norvegicus, UniProt Q64346); experiment: MKP-3 phosphatase inhibitors, primary screen, biochemical, rat enzyme, in vitro (AID 425)
T7 sequence (Q64346 whole entry): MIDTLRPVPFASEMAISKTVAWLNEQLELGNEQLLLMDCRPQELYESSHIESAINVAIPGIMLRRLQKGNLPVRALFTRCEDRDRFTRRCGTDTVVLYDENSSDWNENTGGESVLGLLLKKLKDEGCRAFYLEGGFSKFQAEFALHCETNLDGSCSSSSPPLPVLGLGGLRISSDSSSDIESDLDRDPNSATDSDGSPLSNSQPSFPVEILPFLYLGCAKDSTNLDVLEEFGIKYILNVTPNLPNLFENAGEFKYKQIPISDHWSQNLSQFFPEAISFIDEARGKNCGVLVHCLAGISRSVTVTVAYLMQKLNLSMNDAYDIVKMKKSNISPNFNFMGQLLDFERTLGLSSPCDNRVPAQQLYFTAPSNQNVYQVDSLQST

[13] = target: Mitogen-activated protein kinase 10 (Homo sapiens, UniProt P53779); experiment: Dose response biochemical screening assay for inhibitors of c-Jun N-Terminal Kinase 3 (JNK3). [Related pubchem assays: 746 ]
Chain of Mitogen-activated protein kinase 10 (P53779 whole entry): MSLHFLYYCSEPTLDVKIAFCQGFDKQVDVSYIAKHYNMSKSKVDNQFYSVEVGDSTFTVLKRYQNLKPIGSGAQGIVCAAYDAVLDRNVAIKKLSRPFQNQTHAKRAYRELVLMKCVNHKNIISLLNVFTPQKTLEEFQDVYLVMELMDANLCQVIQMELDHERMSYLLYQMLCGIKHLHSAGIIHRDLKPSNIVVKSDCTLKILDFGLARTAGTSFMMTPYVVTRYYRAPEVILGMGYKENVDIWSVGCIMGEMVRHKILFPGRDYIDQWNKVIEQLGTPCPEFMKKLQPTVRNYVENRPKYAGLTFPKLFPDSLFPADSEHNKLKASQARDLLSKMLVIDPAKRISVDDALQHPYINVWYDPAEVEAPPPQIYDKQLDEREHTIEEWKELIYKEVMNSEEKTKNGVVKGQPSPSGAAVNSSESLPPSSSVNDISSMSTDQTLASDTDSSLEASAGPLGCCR

Streptococcus = experiment: Group A Streptococcus viability loss, dose response, counter-screen for streptokinase expression inhibitor project, luminescence, BacTiterGlo (AID 1915); format: functional, organism-based;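 further: potency for reduction of bacterial viability or growth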
[14] = NIH-3T3 fibroblast cytotoxicity, dose response, cytotoxicity control, cell-based, fluorescence, Alamar Blue, secondary assay (AID 2327); format: functional;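 further: NIH-3T3 mouse fibroblasts cultured with fluconazole at 8 µg/mL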
[15] = target: T8, Calpain-2 catalytic subunit (Sus scrofa, UniProt P43367); experiment: pig calpain II inhibitor potency, dose response, biochemical, fluorogenic peptide substrate (AID 1420); format: functional
T8 sequence (P43367 whole entry): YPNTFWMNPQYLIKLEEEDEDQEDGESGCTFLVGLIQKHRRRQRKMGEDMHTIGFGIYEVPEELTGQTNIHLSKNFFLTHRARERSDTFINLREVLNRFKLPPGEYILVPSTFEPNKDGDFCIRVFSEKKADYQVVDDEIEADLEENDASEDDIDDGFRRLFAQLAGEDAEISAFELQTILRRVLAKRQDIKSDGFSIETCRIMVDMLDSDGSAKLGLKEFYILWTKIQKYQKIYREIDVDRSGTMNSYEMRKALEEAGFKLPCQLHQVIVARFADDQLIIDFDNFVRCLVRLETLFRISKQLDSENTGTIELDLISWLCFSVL

[16] = target: T9, Tyrosine-protein phosphatase non-receptor type 7 (Homo sapiens, UniProt P35236); format: functional
T9 sequence (P35236 whole entry): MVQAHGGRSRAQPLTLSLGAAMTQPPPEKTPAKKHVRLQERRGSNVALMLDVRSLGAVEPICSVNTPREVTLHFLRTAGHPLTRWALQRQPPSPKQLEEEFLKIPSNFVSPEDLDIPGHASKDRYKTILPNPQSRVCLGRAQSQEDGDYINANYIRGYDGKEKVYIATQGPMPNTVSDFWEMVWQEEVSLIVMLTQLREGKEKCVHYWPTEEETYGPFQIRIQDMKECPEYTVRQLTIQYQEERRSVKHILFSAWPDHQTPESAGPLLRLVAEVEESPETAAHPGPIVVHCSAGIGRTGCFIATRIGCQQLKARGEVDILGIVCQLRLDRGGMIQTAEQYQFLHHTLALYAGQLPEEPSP

## CCOc1cc(CNC2CCCC2)cc(Cl)c1OCc1ccccc1
Protein skinhead-1
  IC50: < 3.13 µM (active)
[1]
  EC50: > 32 µM (inactive)
[2]
  IC50: > 32 µM (inactive)
[3]
  IC50: 2.57 µM
Mu-type opioid receptor
  EC50: > 32 µM (inactive)
[4]
  IC50: 7.88 µM (active)
[5]
  EC50: 4.22 µM (active)
Beta-galactosidase
  EC50: > 31.5 µM (inactive)

## CCn1nc(-c2ccccc2)nc2c(=O)n(C)c(=O)nc1-2
[6]
  EC50: 0.442 µM (active)
[7]
  IC50: 10.4 µM (active)
[8]
  EC50: 2.54 µM (active)
Streptokinase A
  EC50: > 150 µM (not active)
H4
  EC50: > 120 µM (not active)
[9]
  IC50: 13.2 µM (active)
[10]
  EC50: > 120 µM (not active)
[11]
  EC50: > 30 µM (not active)
[12]
  IC50: 0.239 µM (active)
[13]
  IC50: 36.3 µM (not active)
Streptococcus
  EC50: 9.43 µM (active)
[14]
  EC50: 1.8 µM (inconclusive)
[15]
  IC50: 6.11 µM (not active)
[16]
  IC50: 8.91 µM (active)
